Values after ≈ are worked out from the molar mass of the structure shown.
Conditions: buffer; pH 7.4; 200.0 µM

**Q.** For COc1cc2c(cc1OC)C(C)N(C(=O)Nc1ccc(F)cc1)CC2 (stereo not drawn), which solubility kinetic is on record?
**A.** 18.4 µg/mL (≈ 53.4 µM)

**Q.** With CC(NCC(=O)NCC(=O)Nc1ccc(F)cc1)c1cccc(C(F)(F)F)c1 (stereo not drawn) as the compound, how does the solubility kinetic read?
**A.** > 59.6 µg/mL

**Q.** For Cc1nn(C)c(Oc2ccccc2)c1CCNC(=O)C(C)(C)C, which solubility kinetic is on record?
**A.** > 47.3 µg/mL

**Q.** For O=C(CSc1cccc2cccnc12)Nc1cc(C(=O)O)cc(C(=O)O)c1, which solubility kinetic is on record?
**A.** 52 µg/mL (≈ 136 µM)

**Q.** Which solubility kinetic does the source give for CC(=O)c1c(C)n(-c2ccc(Cl)cc2)c2ccc(O)cc12 here?
**A.** < 0.6 µg/mL

**Q.** Which solubility kinetic does the source give for CC(=O)Nc1ccc(C(=O)NCCCSc2ccccc2)cc1 here?
**A.** 5.3 µg/mL (≈ 16.1 µM)

**Q.** With CN(C)c1ncc([N+](=O)[O-])cc1C(F)(F)F as the compound, how does the solubility kinetic read?
**A.** 5.2 µg/mL (≈ 22.1 µM)

**Q.** With O=C(O)c1cccc(Cl)n1 as the compound, how does the solubility kinetic read?
**A.** > 23.6 µg/mL

**Q.** With COc1cccc(/C=C/C(=O)Nc2cccc(C(C)=O)c2)c1OC as the compound, how does the solubility kinetic read?
**A.** 4.3 µg/mL (≈ 13.2 µM)

**Q.** Which solubility kinetic does the source give for O=C(Nc1ccccc1C(F)(F)F)c1cnccn1 here?
**A.** 21.5 µg/mL (≈ 80.5 µM)

**Q.** For Nc1cc(N)nc(SCc2cccc(F)c2)n1, which solubility kinetic is on record?
**A.** 24.9 µg/mL (≈ 99.5 µM)

**Q.** With CCCc1cc(C(=O)Nc2cc(OC)ccc2OC)cs1 as the compound, how does the solubility kinetic read?
**A.** 8.6 µg/mL (≈ 28.2 µM)

**Q.** For OC(CNCc1ccccc1C(F)(F)F)C(F)(F)F (stereo not drawn), which solubility kinetic is on record?
**A.** > 43.1 µg/mL

**Q.** For CN1CCN(C(=S)c2ccc(-c3cc(Cl)ccc3Cl)o2)CC1, which solubility kinetic is on record?
**A.** 3.3 µg/mL (≈ 9.29 µM)

**Q.** For O=C(NC(=S)Nc1cccnc1Cl)c1ccc(F)cc1, which solubility kinetic is on record?
**A.** 6.4 µg/mL (≈ 20.7 µM)

**Q.** Which solubility kinetic does the source give for C(#CCN1CCCCC1)COCc1ccccc1.Cl here?
**A.** 39 µg/mL

**Q.** Which solubility kinetic does the source give for CCN(C(=O)CSc1nnc(-c2ccc(OC)cc2)n1C(C)C)C1CCS(=O)(=O)C1 (stereo not drawn) here?
**A.** > 67.9 µg/mL

**Q.** With Cc1ccc(CNC(=O)Cn2cccc2)cc1 as the compound, how does the solubility kinetic read?
**A.** > 34.2 µg/mL

**Q.** For CCOc1ccc(NC(=O)NC2CCCc3ccccc32)cc1 (stereo not drawn), which solubility kinetic is on record?
**A.** 0.4 µg/mL (≈ 1.29 µM)

**Q.** With CCOc1ccc(Nc2nc(NCC(=O)O)nc(N)c2[N+](=O)[O-])cc1 as the compound, how does the solubility kinetic read?
**A.** > 52.2 µg/mL

**Q.** For COC(=O)c1cc(C(=O)c2cc(Cl)ccc2O)coc1=N, which solubility kinetic is on record?
**A.** 41.9 µg/mL (≈ 136 µM)

**Q.** Which solubility kinetic does the source give for O=C1N=C(N2CCOCC2)S/C1=C\c1cccnc1 here?
**A.** > 41.3 µg/mL

**Q.** Which solubility kinetic does the source give for CC(C(=O)NC1CCCCCC1)n1cc([N+](=O)[O-])cn1 (stereo not drawn) here?
**A.** > 42 µg/mL

**Q.** With CC(=O)c1cccc(NC(=O)COc2ccc3oc(=O)cc(C)c3c2)c1 as the compound, how does the solubility kinetic read?
**A.** 1.4 µg/mL (≈ 3.98 µM)

**Q.** For Cc1ccccc1OCC(=O)N1CCc2ccccc2C1, which solubility kinetic is on record?
**A.** 38.6 µg/mL (≈ 137 µM)

**Q.** For CCOC(=O)c1nc(NCc2ccccc2)c2ccccc2n1, which solubility kinetic is on record?
**A.** 27.4 µg/mL (≈ 89.1 µM)

**Q.** With COc1cc(C(=O)COC(=O)c2ccc([N+](=O)[O-])o2)cc(OC)c1OC as the compound, how does the solubility kinetic read?
**A.** > 54.8 µg/mL

**Q.** Which solubility kinetic does the source give for CC(C)(C)c1cc(NC(=O)c2cccs2)no1 here?
**A.** 32.7 µg/mL (≈ 131 µM)

**Q.** With CC1Oc2ccccc2N(CC(=O)NC2CCCCC2)C1=O (stereo not drawn) as the compound, how does the solubility kinetic read?
**A.** > 45.4 µg/mL

**Q.** With CCN(CC)c1cc(C)c2cc(NC(=O)c3ccccc3F)ccc2n1 as the compound, how does the solubility kinetic read?
**A.** 10.7 µg/mL (≈ 30.4 µM)

**Q.** For CC(C)n1c(O)c(C=NCc2cccnc2)c(=O)[nH]c1=S, which solubility kinetic is on record?
**A.** > 45.7 µg/mL

**Q.** For COc1ccc2[nH]cc(CCN(C)C)c2c1, which solubility kinetic is on record?
**A.** > 32.7 µg/mL

**Q.** Which solubility kinetic does the source give for C[C@H](NC(=O)Nc1cccc(Br)c1)C(=O)O here?
**A.** > 43.1 µg/mL

**Q.** With Clc1nc(CN2CCCCC2)nc2sc3c(c12)CCC3 as the compound, how does the solubility kinetic read?
**A.** > 46.2 µg/mL

**Q.** Which solubility kinetic does the source give for COc1ccc(CNC(=S)NC(C)CCc2ccccc2)cc1 (stereo not drawn) here?
**A.** 14.8 µg/mL (≈ 45.1 µM)

**Q.** Which solubility kinetic does the source give for O=C(NCCCn1ccnc1)c1ccc(Br)s1 here?
**A.** 46.9 µg/mL (≈ 149 µM)

**Q.** For COc1ccccc1CCC(=O)OCC(=O)NCc1ccc(OC)c(OC)c1, which solubility kinetic is on record?
**A.** > 58.1 µg/mL

**Q.** Which solubility kinetic does the source give for CC1CCN(CC(C)OC(=O)c2ccco2)CC1.Cl (stereo not drawn) here?
**A.** > 43.2 µg/mL

**Q.** With COc1cccc(CC(=O)OCC(=O)NCc2ccc3c(c2)OCO3)c1 as the compound, how does the solubility kinetic read?
**A.** > 53.6 µg/mL

**Q.** With CCC(OC(=O)c1ccco1)C(=O)NCc1ccc(OC)cc1 (stereo not drawn) as the compound, how does the solubility kinetic read?
**A.** > 47.6 µg/mL

**Q.** With CN(C)c1ccc(NC(=O)COC(=O)c2ccc3c(c2)OCO3)cc1 as the compound, how does the solubility kinetic read?
**A.** 10.8 µg/mL (≈ 31.5 µM)

**Q.** Which solubility kinetic does the source give for CC(C)(C)NC(=O)N1CCCN(c2ccc(C(F)(F)F)cn2)CC1 here?
**A.** > 51.7 µg/mL

**Q.** For CC(=O)c1ccc(NC(=S)NCc2ccco2)cc1, which solubility kinetic is on record?
**A.** > 41.2 µg/mL

**Q.** With S=C(Nc1cccnc1)N1CCc2ccccc21 as the compound, how does the solubility kinetic read?
**A.** > 38.3 µg/mL

**Q.** For O=C(CNC(=O)C1CCCC1)Nc1ccccc1Br, which solubility kinetic is on record?
**A.** > 48.8 µg/mL

**Q.** For O=C(NC(=S)N1CCN(c2ccc(O)cc2)CC1)c1cccs1, which solubility kinetic is on record?
**A.** 41.7 µg/mL (≈ 120 µM)

**Q.** With C=CCC1(Nc2ccccc2)CC(C)N(C)CC1C.O=C(O)C(=O)O (stereo not drawn) as the compound, how does the solubility kinetic read?
**A.** > 52.3 µg/mL

**Q.** For Cc1cc(NC(=O)CSCC(=O)OCc2nnc(-c3ccc(F)cc3)o2)no1, which solubility kinetic is on record?
**A.** > 61 µg/mL

— PubChem BioAssay AID1996
